Key:
[1] = test system: cell cycle G2 checkpoint; assay: propidium iodide staining cell cycle analysis; assay type: cell-based; details: 24 hour treatment, alone and with etoposide
Method: Referring to FIG. 22 (panels A-F), propidium iodide staining cell cycle analysis for 24 hour treatment with DMSO (panel A), CB002 (panel B), CB002 and etoposide (panel C), etoposide (panel D), caffeine (panel E), and caffeine and etoposixe (panel F). […] The deregulation of the G2 checkpoint as a mechanism by caffeine prevents […] tumor cells that are treated with DNA damaging drugs, such as etoposide, from arresting to have time to repair, and thus sensitizes cancer cells to cell death.

[2] = test system: p53 pathway proteins in SW480 cells; assay: Western blot of p53, p53 targets, apoptosis and autophagy markers; assay type: cell-based, human; details: for Noxa protein expression: SW80 cells, 24 hours
Method: (§1) After treatment, cells were harvested by trypsinization, washed with PBS, and lysed with RIPA buffer (Sigma-Aldrich) for 30 minutes to 1 hour at 4° C. Protein lysates were spun down and supernatant was collected. Protein quantification was performed using a Pierce™ BCA Protein Assay Kit (Thermo Fisher Scientific). 1×NuPAGE® LDS sample buffer (Thermo Fisher Scientific) and 2-Mercaptoethanol as the reducing agent (Sigma-Aldrich) were added to protein lysates, followed by boiling for 15 minutes at 95° C. Equal total protein amounts samples were loaded into NuPAGE™ Novex™ 4-12% Bis-Tris Protein Gels (1.5 mm, Thermo Fisher Scientific) and gel eletrophoresis was performed with NuPAGE™ MES SDS Running Buffer. Proteins were transferred onto an Immobilon-P membrane (PVDF, EMD Millipore) using a Bio-Rad system with a 10% Tris-Glycine and 10% methanol transfer buffer diluted in distilled and deionized water. After transfer, membranes were blocked with 10% milk in TBST solution and then incubated overnight with primary antibody, washed with TBST and incubated with secondary antibody for 1 hour. Incubations were performed in 5% milk in TBST solution. Signal was detected by using a chemiluminescent detection kit, followed by autoradiography. The following antibodies were used: p53 (DO-1, 1:1000, Santa Cruz), p73 (1:1000, Bethyl Laboratories), p21 and NOXA (1:250, EMD Millipore), DR5, FADD, cleaved caspase 3, cleaved caspase 8, cleaved PARP, and LC3B (1:1000, Cell Signaling), and β-actin (1:10000, Sigma).
(§2) Proteins were isolated using NP40 Lysis Buffer (20 mmol/L Tris-HCl (pH 7.4), 150 mmol/L NaCl, 5 mmol/L EDTA, 50 mmol/L NaF, 1 mmol/L glycerophosphate, 5 mmol/L Na4P2O7, 0.5% NP40, and complete protease inhibitor cocktail (Roche)) and electrophoresed through 4-12% SDS-PAGE followed by semi-dry transfer to PVDF membranes. The PVDF membranes were incubated with different antibodies including p21 (OP64-100UG, EMD Millipore (world wide web at emdmillipore.com/US/en/product/Antip21WAF1-(Ab-1)-Mouse-mAb-(EA10), EMD_BIO-OP64)), PUMA (12450S, Cell Signaling Technology, world wide web at cellsignal.com/products/primary-antibodies/puma-d30c10-rabbit-mab/12450), DR5 (3696S, Cell Signaling Technology, world wide web at cellsignal.com/products/primary-antibodies/dr5-antibody/3696?N=4294956287&Ntt=3696s&fromPage=plp& requestid=541668), p53(sc-126, Santa Cruz, world wide web at scbt.com/scbt/fr/product/p53-antibody-do-1), and RAN (610341, BD Transduction Laboratories, world wide web at bdbiosciences.com/us/reagents/research/antibodies-buffers/cell-biologyreagents/cell-biology-antibodies/purified-mouse-anti-ran-20ran/p/610341) in blocking buffer at 4° C. overnight. Bound antibody will be detected using IRDye secondary antibodies (LI-COR Biosciences,) in Odyssey blocking buffer for 1 hour then imaged using the ODYSSEY infrared imaging system.

[3] = test system: p53 pathway proteins in DLD-1 cells; assay: Western blot of p53 targets and LC3B; assay type: cell-based, human; details: DLD-1, 24 hours
Method: as §1, §2

[4] = test system: SW480 cells; assay: CellTiter-Glo luminescent cell viability assay; assay type: cell-based, human
Method: Cells were seeded in 96-well plates at a density of 5×10^3 cells per well. 20 μL of CellTiter-Glo® Reagent was added directly to the wells, following the manufacturer's protocol, and bioluminescence signal was determined using an IVIS imaging system.
Cell lines at a concentration of 4×10^3 cells/well were seeded out on an opaque 96-well plate and treated with CB002 and Analog 11 in ranging doses starting from 200 μmol/L with DMSO controls. At 72 hours after treatment, cells were mixed with 30 μL Cell Titer-Glo reagent and after ten minutes of room temperature incubation were imaged using IVIS imaging system (Xenogen).
To begin establishing the potential of CB002 as a candidate therapeutic agent, its therapeutic index was determined by treating cancer (DLD-1, SW480, and RXF393) and normal (WI38 and MRC5) cell lines with concentrations of CB002 ranging from 0-500 μM for a period of 72 hours and assessing cell viability by the CellTiter-Glo® luminescence assay (see, FIG. 2). CB002 has a significant therapeutic index among the cells tested.

[5] = test system: Noxa in 8226 bortezomib resistant multiple myeloma cell line; assay: Western blot of Noxa; assay type: cell-based; details: 25 μM Analog 4, 100 μM Analog 11
Method: Referring to FIG. 20 (panel C), 1×10^6 cells/well were seeded in a 12-well plate. 8226 parental and resistant multiple myeloma cell lines were treated with 100 μM CB002, 25 μM Analog 4, or 100 μM Analog 11.

[6] = test system: 8226 cells; assay: combination treatment with bortezomib, combination index (CompuSyn); assay type: cell-based; details: 48 hours, 0-100 nM Bortezomib with 0-200 μM analog
Method: Referring to FIG. 21 (panels A and B), 3×10^4 cells/well of 8226 cells were seeded in a 96-well plate. The cells were treated for 48 hours with a combination of 0-100 nM Bortezomib with 0-200 μM Analog 4 (see, panel A) and 0-100 nM Bortezomib with 0-200 μM Analog 11 (see, FIG. 21, panel B). CompuSyn software was used to analyze the combination index of both drugs.

[7] = test system: MM1S Bortezomib resistant cells; assay: Cell Titer-Glo cell viability with bortezomib; assay type: cell-based; details: 25 μM Analog 4
Method: Referring to FIG. 21 (panel C), 3×10^4 cells/well of MM1S parental and Bortezomib MM1S resistant cells were seeded in a 96-well plate. Cell viability was determined by the Cell Titer-Glo® Assay.

[8] = test system: WI38 normal cells; assay: apoptosis assay, sub-G1 analysis (propidium iodide, flow cytometry); assay type: cell-based, human; details: 25 μM, 48 hours
Method: (§3) Apoptotic cells were quantified by sub-G1 analysis. Cells were seeded at a density of 2.5×10^5 to 5×10^5 in a 6-well plate and treated for 48-72 hours. After treatment, adherent cells were trypsinized and collected along with floating cells, washed with PBS and fixed in 70% ethanol. Cells were then incubated in a Phosphate-citric acid buffer (0.2 M Na2HPO4+0.1 M Citric Acid, pH 7.8) at room temperature for 5 minutes, spun down and resuspended for staining with 50 μg/mL propidium iodide (PI) in the presence of 250 μg/mL pancreatic ribonuclease (RNase A). Sub-G1 analyses were performed using an Epics Elite Epics flow cytometer (Coulter-Beckman).
(§4) Cells were seeded out at 1×10^6 cells/well on six well plates and treated with CB002 and Analog 11 at ranging doses with DMSO controls. Cells were harvested after 72 hours of treatment, all cells including floating cells were fixed with ethanol and stained with Propidium Iodide and then analyzed using Epics Elite flow cytometer to measure the DNA content of the stained cells.

[9] = test system: SW480 cells; assay: as above; assay type: cell-based, human; details: 25 μM, 48 hours
Method: as §3, §4

**Q.** `Cn1c(=O)c2c(ncn2C)n(C)c1=O` [caffeine, reference compound] was tested. Which “effect on cell cycle G2 checkpoint” value [1] did it give?
**A.** can deregulate the cell cycle G2 checkpoint

**Q.** And the Noxa protein expression [2]?
**A.** dis not induce Noxa expression

**Q.** And the Noxa protein expression [3]?
**A.** dis not induce Noxa expression

**Q.** For `O=c1[nH]cc(F)c(=O)[nH]1` [Analog 5-FU, 5-fluorouracil, reference compound], which “toxicity (cell viability reduction), 5-FU versus CPT-11” value ([4]; 72 hours, ascending doses) is on record?
**A.** greater toxicity

**Q.** `Cn1c(=O)c2[nH]c(Nc3cccc(C(F)(F)F)c3)nc2n(C)c1=O` [Analog 4] was tested. Which Noxa expression [5] did it give?
**A.** able to induce Noxa expression

**Q.** And the “synergy with Bortezomib (combination index)” value [6]?
**A.** synergyze the most with Bortezomib

**Q.** What about the “sensitization to Bortezomib (cell viability)” value [7] of the same compound?
**A.** able to sensitize MM1S resistant cells to Bortezomib treatment

**Q.** What about the “expression of DR5, Noxa and cleaved Parp” value ([2]; 12 or 25 μM, 16 and 24 hours) of the same compound?
**A.** increased expression of DR5, Noxa, and cleaved Parp

**Q.** What about the Noxa expression ([2]; 24 hour, 100 μM CB002, 25 NM Analog 4, 100 μM Analog 11) of the same compound?
**A.** Induction of Noxa expression

**Q.** And the “apoptosis by sub-G1 content” value [8]?
**A.** not normal human fibroblast WI38 cells

**Q.** What about the “apoptosis by sub-G1 content” value [9] of the same compound?
**A.** underwent apoptosis

**Q.** What about the “IC50 ranking among CB002 analogs” value ([4]; Cell Titer-Glo, serial dilution) of the same compound?
**A.** most potent compound

**Q.** `Cn1c(=O)c2[nH]cnc2n(C)c1=O` [theophylline, reference compound] was tested. Which Noxa protein expression [2] did it give?
**A.** dis not induce Noxa expression

**Q.** What about the Noxa protein expression [3] of the same compound?
**A.** dis not induce Noxa expression

**Q.** How did the Noxa protein expression [2] turn out when `CC(=O)CCCCn1c(=O)c2c(ncn2C)n(C)c1=O` [pentoxifylline, reference compound] was run?
**A.** dis not induce Noxa expression

**Q.** What about the Noxa protein expression [3] of the same compound?
**A.** dis not induce Noxa expression

— patent US11203598B2, “Compounds for repressing cancer cell growth” (Institute For Cancer Research, priority 2018, dated 2021)
